From patent US12522594B2, “2-heteroaryl-3-oxo-2,3-dihydropyridazine-4-carboxamides for the treatment of cancer” (Deutsches Krebsforschungszentrum, priority 2017, dated 2026)

Legend:
[1] = target: T1, AHR (Homo sapiens, UniProt P35869); experiment: In vitro assay 1: antagonism in human cell line (transactivation assay, U87 cells prestimulated with kynurenic acid, DRE firefly luciferase reporter); assay type: cell-based; set-up: host or cells: U87 glioblastoma cells, stably transfected with DRE firefly luciferase and renilla reporter constructs; conditions: 150 uM kynurenic acid, 20 hours, read-out: Assay 1: AHR-luc Hum Antagonism IC50
T1 sequence (P35869 11-848): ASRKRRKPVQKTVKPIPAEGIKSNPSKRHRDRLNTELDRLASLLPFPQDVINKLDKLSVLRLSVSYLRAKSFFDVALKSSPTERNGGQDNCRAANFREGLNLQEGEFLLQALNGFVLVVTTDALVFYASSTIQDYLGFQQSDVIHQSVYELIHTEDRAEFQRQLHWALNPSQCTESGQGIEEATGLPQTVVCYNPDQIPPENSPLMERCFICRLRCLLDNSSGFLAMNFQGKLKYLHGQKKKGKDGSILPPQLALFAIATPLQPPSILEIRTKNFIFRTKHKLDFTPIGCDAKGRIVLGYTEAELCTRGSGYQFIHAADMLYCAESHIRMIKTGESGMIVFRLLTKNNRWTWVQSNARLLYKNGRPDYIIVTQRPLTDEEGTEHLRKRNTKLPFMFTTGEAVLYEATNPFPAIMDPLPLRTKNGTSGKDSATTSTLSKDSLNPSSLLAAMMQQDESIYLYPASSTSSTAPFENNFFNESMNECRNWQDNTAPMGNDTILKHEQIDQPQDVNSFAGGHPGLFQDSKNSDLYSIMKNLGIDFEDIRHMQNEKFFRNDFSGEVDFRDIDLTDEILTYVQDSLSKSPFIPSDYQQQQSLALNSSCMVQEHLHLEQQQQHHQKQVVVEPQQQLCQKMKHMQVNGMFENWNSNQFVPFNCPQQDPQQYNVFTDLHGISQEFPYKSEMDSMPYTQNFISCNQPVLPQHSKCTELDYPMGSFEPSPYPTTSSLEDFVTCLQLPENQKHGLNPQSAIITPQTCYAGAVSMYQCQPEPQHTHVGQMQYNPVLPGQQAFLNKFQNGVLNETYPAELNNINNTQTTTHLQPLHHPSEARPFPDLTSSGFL
Description: (§1) Transactivation Assay in Human Cell Line (In Vitro Assays 1 and 2)
(§2) Transactivation assays were carried out in U87 glioblastoma cells (ATCC) endogenously expressing AHR. In addition the cells were stably transfected with an AHR inducible firefly luciferase reporter gene construct that carried AHR-binding sites (DRE) in its promoter and a renilla reporter gene construct with constitutively active promoter. Kynurenic acid is an endogenous AHR activating ligand and was used to prestimulate test cells prior to testing the antagonistic properties of compounds.
In Vitro Assay 1: Antagonism in Human Cell Line
Normalization was done by positive and negative controls.

[2] = target: T1, AHR; experiment: In vitro assay 2: agonism in human cell line (transactivation assay, U87 cells, DRE firefly luciferase reporter); assay type: cell-based; set-up: host or cells: U87 glioblastoma cells, stably transfected with DRE firefly luciferase and renilla reporter constructs; conditions: no kynurenic acid, 20 hours, read-out: Assay 2: AHR-luc Hum Agonism IC50
Description: as §1, §2
In Vitro Assay 2: Agonism in Human Cell Line
As positive activation control cells were incubated with 300 uM kynurenic acid. Normalization was done by positive and negative controls.

Structure (SMILES) | IC50 [1] | IC50 [2]
C[C@]1(O)CCC[C@H]1NC(=O)c1cc(-c2ccc(OC(F)(F)F)cc2)nn(-c2cccnc2)c1=O (single isomer, unassigned) [Example 329, N-[(cis)-2-hydroxy-2-methylcyclopentyl]-3-oxo-2-(pyridin-3-yl)-6-[4-(trifluoromethoxy)phenyl]-2,3-dihydropyridazine-4-carboxamide] | 29.4 nM | > 20 µM
O=C(N[C@@H]1CC[C@@H]1O)c1cc(-c2ccc(C(F)(F)F)cc2)nn(-c2cccnc2)c1=O (single isomer, unassigned) [Example 268, (−)-N-cis-2-Hydroxycyclo-butyl-3-oxo-2-(pyridin-3-yl)-6-[4-(trifluoromethyl)phenyl]-2,3-dihydropyridazine-4-carboxamide] | 56.9 nM | > 20 µM
O=C(N[C@H](CO)C(F)(F)F)c1cc(-c2ccc(Cl)cc2)nn(-c2cncc(F)c2)c1=O [Example 100, 6-(4-Chlorophenyl)-2-(5-fluoropyridin-3-yl)-3-oxo-N-[(2R)-1,1,1-trifluoro-3-hydroxypropan-2-yl]-2,3-dihydropyridazine-4-carboxamide] | 12.7 nM | > 20 µM
CCC(CO)NC(=O)c1cc(-c2ccc(C)cc2)nn(-c2cnn(C)c2)c1=O (centres unmarked) [Example 4, N-(1-Hydroxybutan-2-yl)-6-(4-methylphenyl)-2-(1-methyl-1H-pyrazol-4-yl)-3-oxo-2,3-dihydropyridazine-4-carboxamide] | 9.52 nM | > 20 µM
O=C(N[C@H]1COC[C@@H]1O)c1cc(-c2ccc(Cl)cc2)nn(-c2cccnc2)c1=O (single isomer, unassigned; enantiomer 1) [Example 169, 6-(4-Chlorophenyl)-N-[(trans)-4-hydroxytetrahydrofuran-3-yl]-3-oxo-2-(pyridin-3-yl)-2,3-dihydropyridazine-4-carboxamide, Enantiomer 1] | 31.7 nM | > 20 µM
CC(C)(O)CNC(=O)c1cc(-c2ccc(C(F)(F)F)cc2)nn(-c2cnsc2)c1=O [Example 208, N-(2-Hydroxy-2-methylpropyl)-3-oxo-2-(1,2-thiazol-4-yl)-6-[4-(trifluoromethyl)phenyl]-2,3-dihydropyridazine-4-carboxamide] | 1.22 nM | > 20 µM
O=C(N[C@@H]1COC[C@@H]1O)c1cc(-c2ccc(Cl)cc2)nn(-c2cncc(F)c2)c1=O (relative stereo) [Example 301, 6-(4-Chlorophenyl)-2-(5-fluoropyridin-3-yl)-N-[(cis)-4-hydroxytetrahydro-furan-3-yl]-3-oxo-2,3-dihydropyridazine-4-carboxamide] | 31 nM | > 20 µM
CC(NC(=O)c1cc(-c2ccc(Cl)cc2)nn(-c2cccnc2)c1=O)C(O)C(F)(F)F (single isomer, unassigned) [Example 297, 6-(4-Chlorophenyl)-3-oxo-2-(pyridin-3-yl)-N-(4,4,4-trifluoro-3-hydroxybutan-2-yl)-2,3-dihydropyridazine-4-carboxamide] | 1.49 nM | > 20 µM
O=C(NC[C@H](O)C(F)(F)F)c1cc(-c2ccc(CF)cc2)nn(-c2cccnc2)c1=O [Example 280, 6-[4-(Fluoromethyl)phenyl]-3-oxo-2-(pyridin-3-yl)-N-[(2S)-3,3,3-trifluoro-2-hydroxypropyl]-2,3-dihydropyridazine-4-carboxamide] | 178 nM | > 20 µM
C[C@H](NC(=O)c1cc(-c2ccc(OC(F)(F)F)cc2)nn(-c2cnsc2)c1=O)C(C)(C)O [Example 312, N-[(2S)-3-Hydroxy-3-methylbutan-2-yl]-3-oxo-2-(1,2-thiazol-4-yl)-6-[4-(trifluoromethoxy)phenyl]-2,3-dihydropyridazine-4-carboxamide] | 1.85 nM | > 20 µM
C[C@H](O)[C@H](C)NC(=O)c1cc(-c2ccc(OC(F)F)cc2)nn(-c2cccnc2)c1=O [Example 334, 6-[4-(Difluoromethoxy)phenyl]-N-[(2S,3S)-3-hydroxybutan-2-yl]-3-oxo-2-(pyridin-3-yl)-2,3-dihydropyridazine-4-carboxamide] | 60.2 nM | > 20 µM
CCC(CO)NC(=O)c1cc(-c2ccc(C)cc2)nn(-c2cnn(C)c2)c1=O (single isomer, unassigned) [Example 6, N-(1-Hydroxybutan-2-yl)-6-(4-methylphenyl)-2-(1-methyl-1H-pyrazol-4-yl)-3-oxo-2,3-dihydropyridazine-4-carboxamide] | 181 nM | > 20 µM
O=C(NCC1(O)CCC1)c1cc(-c2ccc(C(F)(F)F)cc2)nn(-c2cccnc2)c1=O [Example 189, N-[(1-Hydroxycyclobutyl)methyl]-3-oxo-2-(pyridin-3-yl)-6-[4-(trifluoromethyl)phenyl]-2,3-dihydropyridazine-4-carboxamide] | 3.03 nM | > 20 µM
CC(C)(O)CNC(=O)c1cc(-c2ccc(C(F)(F)F)cc2)nn(-c2cn[nH]c2)c1=O [Example 266, N-(2-Hydroxy-2-methylpropyl)-3-oxo-2-(1H-pyrazol-4-yl)-6-[4-(trifluoromethyl)phenyl]-2,3-dihydropyridazine-4-carboxamide] | 56.8 nM | > 20 µM
CC(C)(O)CNC(=O)c1cc(-c2ccc(Cl)cc2)nn(-c2cnsc2)c1=O [Example 222, 6-(4-Chlorophenyl)-N-(2-hydroxy-2-methylpropyl)-3-oxo-2-(1,2-thiazol-4-yl)-2,3-dihydropyridazine-4-carboxamide] | 4.27 nM | > 20 µM
O=C(N[C@@H]1CCC[C@H]1O)c1cc(-c2ccc(Cl)cc2)nn(-c2cccnc2)c1=O (relative stereo) [Example 148, 6-(4-Chlorophenyl)-N-[(trans)-2-hydroxycyclopentyl]-3-oxo-2-(pyridin-3-yl)-2,3-dihydropyridazine-4-carboxamide] | 15.3 nM | > 20 µM
Cn1cc(-n2nc(-c3ccc(C(F)F)cc3)cc(C(=O)N[C@@H]3COC[C@@H]3O)c2=O)cn1 (relative stereo) [Example 60, 6-[4-(Difluoromethyl)phenyl]-N-[(cis)-4-hydroxytetrahydrofuran-3-yl]-2-(1-methyl-1H-pyrazol-4-yl)-3-oxo-2,3-dihydropyridazine-4-carboxamide] | 21.8 nM | > 20 µM
O=C(NCC1(O)CCC1)c1cc(-c2ccc(C(F)(F)F)cc2)nn(-c2cnsc2)c1=O [Example 195, N-[(1-Hydroxycyclobutyl)methyl]-3-oxo-2-(1,2-thiazol-4-yl)-6-[4-(trifluoromethyl)phenyl]-2,3-dihydropyridazine-4-carboxamide] | 0.363 nM | > 20 µM
CC(C)(O)C(NC(=O)c1cc(-c2ccc(Cl)cc2)nn(-c2cncnc2)c1=O)C(F)(F)F (single isomer, unassigned) [Example 187, 6-(4-Chlorophenyl)-3-oxo-2-(pyrimidin-5-yl)-N-(1,1,1-trifluoro-3-hydroxy-3-methylbutan-2-yl)-2,3-dihydropyridazine-4-carboxamide] | 33.5 nM | > 20 µM
O=C(N[C@H]1CCCC(F)(F)[C@@H]1O)c1cc(-c2ccc(OC(F)(F)F)cc2)nn(-c2cccnc2)c1=O (relative stereo) [Example 140, N-[(trans)-3,3-Difluoro-2-hydroxycyclohexyl]-3-oxo-2-(pyridin-3-yl)-6-[4-(trifluoromethoxy)phenyl]-2,3-dihydropyridazine-4-carboxamide] | 9.55 nM | > 20 µM
O=C(NC[C@H](O)CO)c1cc(-c2ccc(Cl)cc2)nn(-c2cncc(F)c2)c1=O [Example 99, 6-(4-Chlorophenyl)-N-[(2S)-2,3-dihydroxypropyl]-2-(5-fluoropyridin-3-yl)-3-oxo-2,3-dihydropyridazine-4-carboxamide] | 129 nM | > 20 µM
O=C(N[C@@H]1CC[C@@H]1O)c1cc(-c2ccc(Cl)cc2)nn(-c2cccnc2)c1=O (single isomer, unassigned) [Example 249, (+)-6-(4-Chlorophenyl)-N-cis-2-hydroxycyclo-butyl-3-oxo-2-(pyridin-3-yl)-2,3-dihydropyridazine-4-carboxamide] | 15.3 nM | > 20 µM
